# In article PMC8568970 (Nature Communications, 2021):
# Entries after “also recorded” stand apart in the source; their conditions may differ. Ends that are not written are not given here. * marks the point of attachment. Octanoyl = CCCCCCCC(=O)*
# What was measured:
# wild type GHSR [1] = test: HTRF competition between dy647-JMV2959 and ghrelin in lipid discs; format: binding, human
# Text: (§1) Human GHSR was expressed in E. coli inclusion bodies, folded in amphipol A8-35, and then inserted into lipid nanodiscs formed with MSP1E3D1 and POPC:POPG (3:2 molar ratio) containing or not 10% cholesterol, as described in Damian et al.[54]. After insertion into nanodiscs, active receptor fractions were purified using affinity chromatography with the biotinylated version of the JMV2959 antagonist immobilized on a streptavidin column. GHSR containing disks were separated from aggregates and possible trace amounts of the ligand through a size-exclusion chromatography step on a Superdex 200 increase 10/300 GL column (GE Healthcare) using a 25 mM Na-HEPES, 150 mM NaCl, 0.5 mM EDTA, pH 7.5 buffer as the eluent. GTP turnover was assessed as described previously. All experiments were carried out at 15 °C. The receptor was first incubated with the isolated G protein and, when applicable, the ligand (10 µM) for 30 min in a 25 mM HEPES, 100 mM NaCl, 5 mM MgCl2, pH 7.5 buffer. GTP turnover was then started by adding GTP (5 µM) and GDP (10 µM), and the amount of remaining GTP was assessed after 10 min incubation at 15 °C using the GTPase-Glo assay (Promega). The signal was normalized in each case to that in the absence of receptor (100%).
# (§2) Competition ligand-binding assays were performed using the HTRF signal between GHSR labeled with Lumi-4 Tb and the JMV2959 antagonist labeled with dy647. Increasing concentrations in the competing compound were added to a receptor: antagonist mixture (100 nM concentration range). In all cases, the ligand: receptor mixtures were incubated for 30 min at 15 °C and the HTRF signal recorded using a Cary Eclipse spectrofluorimeter (Varian) with an excitation wavelength set at 337 nm and an emission wavelength at 665 and 620 nm. All binding data were analyzed using Prism 8.0.
# Supplementary Figure 2. Potential cholesterol binding sites and effects of cholesterol in GHSR signaling. (a) Cryo-EM density maps of two cholesterol molecules modeled in the structure of ghrelin-GHSR-Gi.GHSR is colored in slate. Cholesterol molecules are shown as grey sticks. […]
# GHSR mutants [2] = test: Calcium mobilization assay, GHSR mutants (results in words); format: cell-based, human
# Procedure: Calcium mobilization assay to measure GHSR signaling was carried out in HEK-293T cells cultured in DMEM supplemented with 10% (vol/vol) FBS (Fisher Scientific). The cDNAs encoding human GHSR was cloned into the pcDNA3.1(+) vector (Invitrogen) with a FLAG peptide fused to the N terminus. Mutant variants were then generated by site-directed mutagenesis and all mutants were fully sequenced. Various GHSR constructs were transfected to HEK-293T cells using FuGENE Transfection Reagent (Promega). The surface expression of wtGHSR and various mutants in HEK-293T cells was determined and confirmed using FACS with a fluorescent FLAG M1 antibody (homemade).
# To measure the agonist-induced calcium release, 50 μL dye loading buffer made of Hank’s Balanced Salt Solution (HBSS) with 5 μM Fluo-4 (Sigma), 0.2% pluronicacid, and 1% FBS was added to the GHSR-expressing cells and incubated for 1 h at 37 °C. Cells were then washed twice with HBSS buffer and left at room temperature in 50 μL HBBS. Fluo-4 fluorescence intensity (excitation 480 nm, emission 520 nm) was measured as an indicator of calcium release in a multimode reader (Spark 20 M, TECAN). […] The data were analyzed in GraphPad Prism 8 using the one site dose-response stimulation method. Results were presented as mean ± S.D. from three independent experiments.
# GHSR mutants [3] = test: HTRF-monitored binding of labeled ghrelin, GHSR mutants (results in words); parameters: species or system human; conditions: Supplementary Fig. 3b
# Procedure: as §2
# GHSR mutants. (a) Surface expression levels of GHSR mutants tested in Figure 2. For each GHSR mutant, the expression level was determined by measuring the fluorescence intensity of transfected HEK-293 cells stained with a fluorescent anti-FLAG antibody that could bind to the N-terminal FLAG peptide of each GHSR construct. BG means background, representing results from non-transfected HEK-293 cells. Each column represents results shown as mean ± s.d. from 3 wells of cells transiently transfected with each GHSR mutant. (b) HTRF-monitored binding of […]
# POPC:POPG lipid discs. The binding data are presented as variations in the HTRF ratio as a […]
# Each data point represents mean ± SD of three […]
# ibutamoren (yellow). The receptors are colored in slate and green, respectively. ECL2 and ECL3 show notable conformational differences. […]
# GHSR mutants [4] = conditions: cited from earlier work
# GHSR [5] = conditions: signaling through GHSR, under nutritional or physiological challenges; cited from earlier work
# Text: It mainly signals through the growth hormone secretagogue receptor (GHSR, or ghrelin receptor), a class A G protein-coupled receptor (GPCR). […] In addition, GHSR plays critical role in the mod ...
# [6] = test system: GHSR and Gi signaling pathway; conditions: cited from earlier work
# Text: The GHSR and Gi signaling ...
# wild type GHSR [7] = test: GTP turnover assay for Gi catalyzed by GHSR in nanodiscs; format: biochemical, human
# Text: as §1
# Supplementary Figure 2. Potential cholesterol binding sites and effects of cholesterol in GHSR signaling. (a) Cryo-EM density maps of two cholesterol molecules modeled in the structure of ghrelin-GHSR-Gi.GHSR is colored in slate. Cholesterol molecules are shown as grey sticks. (b) GTP turnover for Gi catalyzed by wild type GHSR in nanodiscs containing 10% […]
# normalized to that obtained for the G protein in the absence of receptor (Gi panels), and data is mean ± SD of five experiments. Statistical values were obtained by means of two-sided […]
# loaded receptor, respectively). […]
# the absence or presence of 10% cholesterol (molar ratio) into the lipid discs. Each data point represents mean ± SD of three experiments.
# (1 picture or pasted object on this page, not shown here)
# GHSR [8] = conditions: cited from earlier work
# Text: It mainly signals through the growth hormone secretagogue receptor (GHSR, or ghrelin receptor), a class A G protein-coupled receptor (GPCR). […] The GHSR and Gi signaling ...
# GHSR mutant R102A = test: Calcium mobilization assay, R102A; format: cell-based, human; conditions: Fig. 2f
# Procedure: Ghrelin residues are labeled in orange. […] GHSR bound to ibutamoren is colored green. Ibutamoren is shown as yellow sticks. e Ibutamoren binding pocket. f Dose-dependent action of ibutamoren on wtGHSR and mutants. In c and f, agonist-induced GHSR signaling was measured by Ca^2+ mobilization assay. Each data point represents mean ± S.D. from three independent assays. Polar interactions are shown as dashed lines in (a, b, and e).
# Calcium mobilization assay to measure GHSR signaling was carried out in HEK-293T cells cultured in DMEM supplemented with 10% (vol/vol) FBS (Fisher Scientific). The cDNAs encoding human GHSR was cloned into the pcDNA3.1(+) vector (Invitrogen) with a FLAG peptide fused to the N terminus. […] The surface expression of wtGHSR and various mutants in HEK-293T cells was determined and confirmed using FACS with a fluorescent FLAG M1 antibody (homemade).
# To measure the agonist-induced calcium release, 50 μL dye loading buffer made of Hank’s Balanced Salt Solution (HBSS) with 5 μM Fluo-4 (Sigma), 0.2% pluronicacid, and 1% FBS was added to the GHSR-expressing cells and incubated for 1 h at 37 °C. […] Fluo-4 fluorescence intensity (excitation 480 nm, emission 520 nm) was measured as an indicator of calcium release in a multimode reader (Spark 20 M, TECAN). […] The data were analyzed in GraphPad Prism 8 using the one site dose-response stimulation method. […]
# [9] = reconstituted lipid nanodiscs, 10% cholesterol
molecule,measurement,setting,value
"ghrelin: 28-amino acid orexigenic peptide hormone; octanoylation at position-3 serine; endogenous GHSR agonist (Tocris) (GSS(Octanoyl)FLSPEHQRVQQRKESKKPPAKLQPR; UniProt Q9UBU3 24-51, looked up)",decrease of Kd value for ghrelin in the presence of cholesterol,"wild type GHSR [1]; 10% cholesterol vs none, lipid discs",about 2 fold
same,"EC50 of ghrelin in inducing GHSR signaling, effect of the four TM7 proline mutations","GHSR mutants [2]; I297P, A298P, Q299P, I300P vs wtGHSR, 3 independent assays",didn't significantly affect the EC50s of ghrelin
same,"agonistic action of ghrelin, effect of proline mutations at the extracellular end of TM7","GHSR mutants [2]; individual residues E297 to I300 to proline, Supplementary Fig. 4b",didn't significantly affect the agonistic action of ghrelin; also recorded: not critical for the agonistic action of ghrelin
same,"GHSR signaling induced by ghrelin, effect of mutations of hydrophobic residues in cavity II","GHSR mutants [2]; mutations to larger or polar residues, Fig. 2c",compromised GHSR signaling induced by ghrelin
same,"ghrelin binding, effect of salt bridge mutations",GHSR mutants [3]; E124 and R283 to alanine or glutamine,could almost abolish ghrelin binding
same,"affinity of GHSR for ghrelin, effect of alanine mutations","GHSR mutants [3]; individual mutations I178, L181, F286 to alanine",decreased affinity of GHSR for ghrelin
same,"potency of ghrelin in activating GHSR, effect of mutations F279, F312, W276",GHSR mutants [4]; individual mutations in the aromatic cluster,significantly lowered the potency of ghrelin
same,"potency of ghrelin, effect of mutations E124, R283, Q120",GHSR mutants [4]; individual mutations to non-polar residues,decreased potency of ghrelin
same,growth hormone secretion and food intake,GHSR [5],stimulates growth hormone secretion and food intake
same,glucose-induced insulin release,[6],attenuated glucose-induced insulin release
CC(C)CCC[C@@H](C)[C@H]1CC[C@H]2[C@@H]3CC=C4C[C@@H](O)CC[C@]4(C)[C@H]3CC[C@]12C [cholesterol],effect of cholesterol on GHSR-induced Gi activation,"wild type GHSR [7]; 10% cholesterol (molar ratio), with and without 10 µM ghrelin, five experiments",subtle but significant positive effects
same,effect of cholesterol on basal activity (GTP turnover),"wild type GHSR [7]; no ligand, lower amplitude than in the presence of ghrelin",statistically significant effect
same,effect of cholesterol on activity of GHSR,wild type GHSR [7]; [9],positively regulate
same,effect of cholesterol on affinity of GHSR for ghrelin,"wild type GHSR [1]; 10% cholesterol, lipid discs (peer review file)",slightly increase the affinity of GHSR for ghrelin
same,effect of cholesterol on binding of ghrelin to GHSR,wild type GHSR [1]; [9],positively regulate the binding of ghrelin to GHSR
"Liver expressed antimicrobial peptide 2 (LEAP2): Liver expressed antimicrobial peptide 2, GHSR inverse agonist or antagonist (MTPFWRGVSLRPIGASCRDDSECITRLCRKRRCSLSVAQE; UniProt Q969E1 38-77, looked up)",pharmacological character at GHSR,GHSR [8],GHSR inverse agonist or antagonist
Cc1cc(-c2ccc3c(c2)CC[C@H]3N2CC3(CCN(C(=O)Cc4cn5cc(C)sc5n4)CC3)C2)ncn1 [PF-5190457],pharmacological character at GHSR,GHSR [8],GHSR inverse agonist
CC(C)(N)C(=O)N[C@H](COCc1ccccc1)C(=O)N1CCC2(CC1)CN(S(C)(=O)=O)c1ccccc12 [ibutamoren],"action of ibutamoren, effect of mutation of R102",GHSR mutant R102A,compromised action of ibutamoren
